From patent publication US9840494B2, “Quinazoline derivative” (Tianjin Hemay Oncology Pharmaceutical Co., Ltd., priority 2013, dated 2017) come the findings set out here.

This data set in a line: Bioavailability assay in rats, Experiment IV (dimethylsulfonate). Format: in vivo. The text has this: Experiment IV Bioavailability Assay for N-[4-(3-chloro-4-fluorophenylamino)-7-(2-methoxyethoxy)quinazolin-6-yl]-2-[1-(2-methoxyethyl)piperidin-4-ylidene]acetamide Dimethylsulfonate in Rats
12 SD rats (half of them were male and half of them were female, 7-10 weeks old, weighting 200-350 g) were purchased from Beijing Vital River Laboratory Animal Technology Co., Ltd., and reared in Animal House, GLP Center, Taiping Road No. 27 courtyard. Production License Number of Beijing Vital River Laboratory Animal Technology Co., Ltd. is SCXK (Beijing) 2009-0002.
Blood (about 0.5 ml) was drawn with glass capillary from the orbital venous plexus at […], 1 h, 2 h, 3 h, 4 h, 6 h, 8 h, 12 h, and 24 h after dosing to each group of animals according to the administration scheme, and put into a heparinized centrifuge tube. The tube was gently shaken up and down, then centrifuged at 3000 r/min for […] at 4° C. The plasma was separated. 50 μl of the plasma was pipetted into a centrifuge tube (5 ml), then 50% methanol aqueous solution (50 μl ) and thienorphine-D4 isotope (50 μl) as an internal standard were added thereto and vortexed. A solution of methanol:acetonitrile=1:3 (volume ratio) was added, vortexed for 30 s so as to mix thoroughly. The resulting mixture was centrifuged at 3000 r/min for 5 mM 500 μL of the supernatant was taken out, to which 500 μl of 20% methanol solution was added for serial dilution. The mixture was vortexed for 30 s so as to mix thoroughly. The mixture was centrifuged at 13000 r/min for 5 mM, and […], of the supernatant was injected for LC/MS/MS assay.
Liquid phase conditions: A: aqueous solution (5 mmol/L ammonium acetate, 0.2% formic acid), B: methanol; column temperature 25° C.; injection volume: 10 μL; gradient elution.
MS conditions: ion source: Turbo Ionspray (ESI+); detection mode: MRM; electrical parameters: compound 1: m/z 544.2-457.1, CE (collision energy): 36.5.
The main pharmacokinetic parameters and oral bioavailability results were calculated by using DAS2.0 (statistical moment).
The pharmacokinetic parameters of statistical moments (n=6) for a single intravenous injection of 5.0 mg/kg in rats
The pharmacokinetic parameters of statistical moments (n=6) for a single intragastric administration of 5.0 mg/kg in rats
Method for the calculation of bioavailability: F=(AUCig×Div)/(AUCiv×Dig)×100%
wherein D is dose; AUC: the area under the plasma drug concentration-time curve; ig represents intragastric administration; and iv represents intravenous injection administration.

Where [1] appears, read: SD rats, single intragastric administration of 5.0 mg/kg, n=6.
The mark [2] stands for this setting: SD rats, single intravenous injection of 5.0 mg/kg, n=6.
Where [3] appears, read: both sexes, rat, plasma, po, SD rats, single intragastric administration of 5.0 mg/kg, n=6.
The mark [4] stands for this setting: both sexes, rat, plasma, SD rats, single intravenous injection of 5.0 mg/kg, n=6.

`COCCOc1cc2ncnc(Nc3ccc(F)c(Cl)c3)c2cc1NC(=O)C=C1CCN(CCOC)CC1.CS(=O)(=O)O` [Compound 3, N-[4-(3-chloro-4-fluorophenylamino)-7-(2-methoxyethoxy)quinazolin-6-yl]-2-[1-(2-methoxyethyl)piperidin-4-ylidene]acetamide dimethylsulfonate]: the “F (bioavailability)” value (SD rats, 5 mg/kg ig vs 5 mg/kg iv) is reported as 57%. Under setting [1], this molecule had a CLz/F of 75.8 mL/min/kg and a t½z of 5.83 h. Under setting [2], this molecule yielded a CLz of 43.8 mL/min/kg and a t½z of 4.06 h. In addition, the bioavailability (both sexes, SD, rat, plasma, oral, 5 mg/kg, 5 mg/kg ig vs 5 mg/kg iv, read-out: F (bioavailability)) is 56.9%. In addition, under setting [3], the total exposure AUC(0-inf) came out at 902 ng·h/mL, the AUC(0-t) came out at 782 ng·h/mL, the Cmax was found to be 75.2 ng/mL and the Tmax amounted to 3.33 h. Besides, the Vd/F (both sexes, rat, plasma, po, SD rats, single intragastric administration of 5.0 mg/kg, n=6, read-out: Vz/F) was 36.9 L/kg. For the same molecule, under setting [4], the AUC(0-inf) was determined as 1460 ng·h/mL, the AUC(0-t) came out at 1370 ng·h/mL, the highest level (Cmax) was 1220 ng/mL and the time of peak concentration (Tmax) was determined as 0.02 h. For the same molecule, the Vd (both sexes, rat, plasma, SD rats, single intravenous injection of 5.0 mg/kg, n=6, read-out: Vz) amounted to 15.2 L/kg.

The term bioavailability denotes the share of a dose that reaches the circulation, judged against a reference dose that is usually intravenous. Usually AUC(0-inf) stands for total exposure, with the tail of the curve extrapolated. For orientation: AUC(0-t) means the area under the concentration-time curve up to a stated or last time point. A lower AUC(0-t) goes with low exposure. A word on the Cmax: it is the highest concentration seen after dosing. As a reminder, the Tmax is the time from dosing to the highest level.
